From US20120225862A1, “HETEROARYL BENZAMIDES, COMPOSITIONS AND METHODS OF USE” (AUCKLAND UNIVSERVICES LIMITED, priority 2009, published 2012)

Experiments:
[1] = Solubility (comparison in words); type: physicochemical
[2] = system: 786-O; experiment: Xenograft tumor growth, 786-O; type: in vivo, mice; settings: daily, 11.6 mg/kg for 3 days then 7.8 mg/kg, ten to fourteen days, vs vehicle
Description: (§1) Five million cells were injected into the flanks of nu/nu mice (4-6 weeks old males) and allowed to grow to approximately 50 mm^3. The mice were injected daily by intra-peritoneal to deliver either vehicle or drug. Tumors were measured every other day and tumor volume was calculated as 0.5 length by width squared.
(§2) In Vivo Studies and Immunohistochemistry. All experiments were approved by Stanford's Administrative Panel on Laboratory Animal Care (APLAC) and in accordance with both institutional and national guidelines. Five million cells were implanted subcutaneously into the flanks of nude mice (4-6 weeks old)(Charles River Laboratories). Tumors were measured with calipers. Volume was calculated by the following formula: width^2×0.5 length. Once tumors reached an average size of >20 mm^3, mice were randomized into vehicle (DMSO diluted in 16% cremaphor EL/PBS) or treated groups. Mice were treated with compound 85 (11.6 mg/kg for the first 3 days, followed by 7.8 mg/kg for the 7-9 days). Five-micron sections were cut for immunohistochemistry. Sections were counterstained with hematoxylin and eosin. For 2-[^18F]-fluoro-2-deoxy-glucose-positron emission tomography imaging, mice bearing tumors were fasted overnight. The next day, the mice were anesthetized with 2% isoflurane and injected intraperitoneally with 250 μCi of FDG. […]

[3] = system: ACHN shVHL; experiment: Xenograft tumor growth, ACHN expressing shRNA to VHL; type: in vivo, mice; settings: daily systemic treatment ten to fourteen days, vs vehicle
Description: as §1, §2

[4] = Normal tissue toxicity (histology); type: in vivo; settings: treated mice; kidney, spleen, liver, heart, salivary gland, brain
Description: FIG. 5A-E In vivo monitoring and efficacy of compound 47. […] 786-O, a renal clear cell carcinoma with a naturally occurring VHL mutation, were implanted subcutaneously into the flanks of CD-1 nude mice. Representative axial cross section of a mouse prior to treatment (left) and following three daily i.p. injections with compound 85 (11.6 mg/kg)(right), overlaid over CT scan. (B) Quantitatively, compound 85 inhibits FDG-PET in mouse xenografts. Quantification of FDG-PET inhibition by compound 85 as determined by the 90th percentile ROI for percent injected dose per gram (% ID/g) (*p<0.01). (C) Compound 85 is not toxic to normal tissues. (a, b) Kidney of vehicle- and compound 85-treated animals. (c, d) Spleen of vehicle- and compound 85-treated animals. (e, f) Liver of vehicle- and compound 85-treated animals. (g, h) Heart of vehicle- and compound 85-treated animals. (i, j) Salivary gland of vehicle- and compound 85-treated animals. (k, l) Brain of vehicle- and compound 85-treated animals. Scale bar represents 100 microns. (D) Compound 85 delays tumor growth. 786-O tumor-bearing mice were treated daily with vehicle or compound 85 (11.6 mg/kg for the first 3 days, followed by 7.8 mg/kg for the next week)(*p<0.005). […]
In Vivo Studies and Immunohistochemistry. […] Tumors were measured with calipers. Volume was calculated by the following formula: width^2×0.5 length. […]

[5] = system: RCC4/VHL; experiment: XTT IC50 assay, selectivity RCC4 versus RCC4 with VHL-reintroduced; type: cell-based, human; settings: selectivity ratio of XTT IC50 values, RCC4 vs RCC4/VHL
How it was run: (§3)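 RCC4 parental and VHL-reintroduced RCC4/VHL cells (DMEM, 10% FCS) treated with serially diluted drug for four days. Viability by XTT (0.3 mg/mL) with N-methyl dibenzopyrazine methyl sulfate, 1–2 h at 37 °C, absorbance 450 nm; IC50 by linear interpolation.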

[6] = system: RCC4; experiment: XTT IC50 / viability assay, RCC4 cells; type: cell-based, human; settings: Homo sapiens, RCC4, 96 h; XTT assay, four days
How it was run: as §3

[7] = system: 786-O; experiment: FDG-PET imaging of 786-O xenografts; type: in vivo, mice
Description: FIG. 5A-E In vivo monitoring and efficacy of compound 47. […] 786-O, a renal clear cell carcinoma with a naturally occurring VHL mutation, were implanted subcutaneously into the flanks of CD-1 nude mice. Representative axial cross section of a mouse prior to treatment (left) and following three daily i.p. injections with compound 85 (11.6 mg/kg)(right), overlaid over CT scan. (B) Quantitatively, compound 85 inhibits FDG-PET in mouse xenografts. Quantification of FDG-PET inhibition by compound 85 as determined by the 90th percentile ROI for percent injected dose per gram (% ID/g) (*p<0.01). (C) Compound 85 is not toxic to normal tissues. (a, b) Kidney of vehicle- and compound 85-treated animals. (c, d) Spleen of vehicle- and compound 85-treated animals. (e, f) Liver of vehicle- and compound 85-treated animals. (g, h) Heart of vehicle- and compound 85-treated animals. (i, j) Salivary gland of vehicle- and compound 85-treated animals. (k, l) Brain of vehicle- and compound 85-treated animals. Scale bar represents 100 microns. (D) Compound 85 delays tumor growth. 786-O tumor-bearing mice were treated daily with vehicle or compound 85 (11.6 mg/kg for the first 3 days, followed by 7.8 mg/kg for the next week)(*p<0.005). (E) Compound 85 delays tumor growth in cells that have lost VHL. ACHN cells expressing a short hairpin RNA to VHL were implanted subcutaneously into the flanks of immunocompromised mice. Once tumors reached an average of >20 mm^3, mice were treated daily with compound 85 or vehicle (*p<0.05). All error bars represent the standard error of the mean.
In Vivo Studies and Immunohistochemistry. All experiments were approved by Stanford's Administrative Panel on Laboratory Animal Care (APLAC) and in accordance with both institutional and national guidelines. Five million cells were implanted subcutaneously into the flanks of nude mice (4-6 weeks old)(Charles River Laboratories). Tumors were measured with calipers. Volume was calculated by the following formula: width^2×0.5 length. […]

[8] = system: ACHN; experiment: Xenograft tumor growth, ACHN with wild-type VHL; type: in vivo, mice; settings: daily treatment vs vehicle control
Description: as §1, §2

## CN1CCN(c2ccc(S(=O)(=O)NCc3ccc(C(=O)Nc4cccnc4)cc3)cc2)CC1 [Example 76, 4-((4-(4-Methylpiperazin-1-yl)phenylsulfonamido)methyl)-N-(pyridin-3-yl)benzamide]
[1]
  solubility relative to compound 47: more soluble
[2]
  tumor growth, 786-O xenografts: markedly delayed tumor growth
[3]
  tumor growth, ACHN shVHL xenografts: markedly delayed tumor growth
[4]
  normal tissue toxicity: no normal tissue toxicity
[5]
  Ratio (RCC4:RCC/VHL): c (“c” reflects a ratio of >100)
[6]
  IC50: < 1000 nM
[7]; 786-O xenografts in CD-1 nude mice, three daily i.p. doses (11.6 mg/kg)
  glucose uptake within tumors by FDG-PET: striking decrease in glucose uptake within the tumors
[7]; 786-O xenografts, FIG. 5B
  tumor FDG uptake, quantified (% ID/g): consistently decreased FDG uptake
[8]
  tumor growth, ACHN wild-type VHL xenografts: grew at similar rates
